Each compound was assayed against Full length KDM2B (Homo sapiens (Human), UniProt Q8NHM5) (assay: KDM2B TR-FRET Assay for Determining Inhibitor IC50). Settings: TR-FRET (HTRF), biotin-H3K36me2 peptide substrate.
Chain of Full length KDM2B (Q8NHM5 whole entry): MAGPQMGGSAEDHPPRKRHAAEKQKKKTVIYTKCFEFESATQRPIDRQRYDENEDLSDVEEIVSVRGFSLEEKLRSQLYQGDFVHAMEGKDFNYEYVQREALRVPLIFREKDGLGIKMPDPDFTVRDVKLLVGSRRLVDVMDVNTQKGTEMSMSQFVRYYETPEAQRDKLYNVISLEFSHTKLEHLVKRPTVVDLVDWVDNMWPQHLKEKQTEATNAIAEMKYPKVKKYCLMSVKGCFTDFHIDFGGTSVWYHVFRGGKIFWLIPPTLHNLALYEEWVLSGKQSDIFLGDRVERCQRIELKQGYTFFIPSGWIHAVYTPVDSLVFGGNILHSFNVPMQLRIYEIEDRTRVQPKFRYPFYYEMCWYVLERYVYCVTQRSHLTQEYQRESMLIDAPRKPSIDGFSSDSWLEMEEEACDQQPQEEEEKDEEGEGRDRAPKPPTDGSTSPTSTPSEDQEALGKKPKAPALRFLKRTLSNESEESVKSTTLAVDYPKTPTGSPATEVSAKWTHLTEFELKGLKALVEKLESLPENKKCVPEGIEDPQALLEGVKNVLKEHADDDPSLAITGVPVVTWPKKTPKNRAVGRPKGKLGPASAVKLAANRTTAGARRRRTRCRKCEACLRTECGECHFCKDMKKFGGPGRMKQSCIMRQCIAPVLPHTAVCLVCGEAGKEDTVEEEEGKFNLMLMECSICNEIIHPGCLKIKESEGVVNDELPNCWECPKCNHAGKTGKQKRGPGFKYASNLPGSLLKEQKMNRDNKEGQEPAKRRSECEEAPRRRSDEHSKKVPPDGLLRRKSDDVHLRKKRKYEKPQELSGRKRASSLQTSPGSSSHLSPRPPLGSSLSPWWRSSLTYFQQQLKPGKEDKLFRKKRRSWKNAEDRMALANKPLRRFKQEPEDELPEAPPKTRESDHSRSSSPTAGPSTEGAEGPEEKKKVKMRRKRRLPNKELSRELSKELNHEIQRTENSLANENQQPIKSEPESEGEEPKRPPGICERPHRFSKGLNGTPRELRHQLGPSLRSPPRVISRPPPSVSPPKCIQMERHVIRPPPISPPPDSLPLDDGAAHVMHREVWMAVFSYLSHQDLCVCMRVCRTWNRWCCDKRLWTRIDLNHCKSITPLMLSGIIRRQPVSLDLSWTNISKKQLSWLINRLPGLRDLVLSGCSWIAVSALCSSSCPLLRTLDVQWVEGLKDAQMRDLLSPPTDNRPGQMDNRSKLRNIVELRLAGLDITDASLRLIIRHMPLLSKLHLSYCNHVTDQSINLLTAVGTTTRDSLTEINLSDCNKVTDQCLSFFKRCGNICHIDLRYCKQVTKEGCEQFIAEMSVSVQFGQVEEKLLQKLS
Assay type: biochemical
From the text: KDM2B TR-FRET Assay for Determining Inhibitor IC50
The KDM2B TR-FRET Assay described above represents an additional embodiment of the invention.
With COc1ccccc1-c1ccc(S(=O)(=O)N2CCN=C2N2CCN(C3CCC3)CC2)cc1 [Example 24, 1-cyclobutyl-4-[1-[4-(2-methoxyphenyl)phenyl]sulfonyl-4,5-dihydroimidazol-2-yl]piperazine] the IC50 was 0.05 nM. Work on CCN1CCN(C2=NCCN2S(=O)(=O)c2cccc(OC(F)(F)F)c2)CC1 [Example 99, 1-ethyl-4-[1-[3-(trifluoromethoxy)phenyl]sulfonyl-4,5-dihydroimidazol-2-yl]piperazine] yielded an IC50 of 6.22 nM. For CCN1CCN(C2=NCCN2S(=O)(=O)c2ccc(-c3ccc(F)cc3)cc2)CC1 [Example 98, 1-ethyl-4-[1-[4-(4-fluorophenyl)phenyl]sulfonyl-4,5-dihydroimidazol-2-yl]piperazine], the IC50 was 1.02 nM. Work on CCN1CCN(C2=NCCN2S(=O)(=O)c2ccc3ccccc3c2)CC1 [Example 110, 1-ethyl-4-[1-(2-naphthylsulfonyl)-4,5-dihydroimidazol-2-yl]piperazine] yielded an IC50 of 0.998 nM. CCN1CCN(C2=NCCN2S(=O)(=O)c2cccc3nonc23)CC1 [Example 120, 4-[[2-(4-ethylpiperazin-1-yl)-4,5-dihydroimidazol-1-yl]sulfonyl]-2,1,3-benzoxadiazole] gave an IC50 of 13.3 nM. Work on O=S(=O)(c1ccc2cc(Cl)ccc2c1)N1CCN=C1N1CCN(C2CCC2)CC1 [Example 74, 1-[1-[(6-chloro-2-naphthyl)sulfonyl]-4,5-dihydroimidazol-2-yl]-4-cyclobutyl-piperazine] yielded an IC50 of 0.041 nM. N#Cc1cccc(-c2ccc(S(=O)(=O)N3CCN=C3N3CCN(C4CCC4)CC3)cc2)c1 [Example 13] was tested, and the IC50 was 0.145 nM. Work on CC(C)c1ccc(S(=O)(=O)N2C[C@H](C3CC3)N=C2N2CCN(C3CCC3)CC2)cc1 [Example 42, (S)-1-cyclobutyl-4-(4-cyclopropyl-1-((4-isopropylphenyl)sulfonyl)-4,5-dihydro-1H-imidazol-2-yl)piperazine] yielded an IC50 of 0.047 nM. Compound CC(C)c1ccc(S(=O)(=O)N2CCN=C2N2C3CCC2CN(C2CCC2)C3)cc1 [Example 48, 3-cyclobutyl-8-[1-(4-isopropylphenyl)sulfonyl-4,5-dihydroimidazol-2-yl]-3,8-diazabicyclo[3.2.1]octane] has an IC50 of 1.19 nM. COc1cccc(C(=O)N2CCN=C2N2CCN(C3CCC3)CC2)c1 [Example 90, [2-(4-cyclobutylpiperazin-1-yl)-4,5-dihydroimidazol-1-yl]-(3-methoxyphenyl)methanone] gave an IC50 of 2.29 nM. Compound CCN1CCN(C2=N[C@H](C)CN2S(=O)(=O)c2ccc(C(C)C)cc2)CC1 [Example 43, (R)-1-ethyl-4-[1-(4-isopropylphenyl)sulfonyl-4-methyl-4,5-dihydroimidazol-2-yl]piperazine] has an IC50 of 8.76 nM. Compound N#Cc1ccc(-c2ccc(S(=O)(=O)N3CCN=C3N3CCN(C4CCC4)CC3)cc2)cc1 [Example 5, 4-[4-[[2-(4-cyclobutylpiperazin-1-yl)-4,5-dihydroimidazol-1-yl]sulfonyl]phenyl]benzonitrile] has an IC50 of 0.097 nM. With O=S(=O)(c1ccc(-c2cccc(Cl)c2)cc1)N1CCN=C1N1CCN(C2CCC2)CC1 [Example 22, 1-[1-[4-(3-chlorophenyl)phenyl]sulfonyl-4,5-dihydroimidazol-2-yl]-4-cyclobutyl-piperazine] the IC50 was 0.12 nM. Work on CC(C)c1ccc(S(=O)(=O)N2CCN=C2N2CCN(C3CC(F)C3)CC2)cc1 (stereo not shown) [Example 40, 1-(3-fluorocyclobutyl)-4-[1-(4-isopropylphenyl)sulfonyl-4,5-dihydroimidazol-2-yl]piperazine] yielded an IC50 of 0.391 nM. O=C(c1ccccc1)N1CCN=C1N1CCN(C2CCC2)CC1 [Example 82, [2-(4-cyclobutylpiperazin-1-yl)-4,5-dihydroimidazol-1-yl]-phenyl-methanone] showed an IC50 of 7 nM. In the case of N#Cc1ccc2cc(S(=O)(=O)N3CCN=C3N3CCN(C4CCC4)CC3)ccc2c1 [Example 36, 6-[[2-(4-cyclobutylpiperazin-1-yl)-4,5-dihydroimidazol-1-yl]sulfonyl]naphthalene-2-carbonitrile], the IC50 is reported as 0.13 nM.

Reference: patent publication US10202354B2, “Therapeutic compounds and uses thereof” (GENENTECH, INC., priority 2015, dated 2019)
